Measurements: US8486892B2, “Blood coagulation factor inhibitors” (Novo Nordisk Health Care AG, priority 2008, dated 2013)

Target: T1, 40K-PEG-rFVIIa (Homo sapiens, UniProt P08709)
T1 construct: Typically, Factor VII is cleaved between residues 152 and 153 to yield Factor VIIa; 40K-PEG (about 40 kDa PEG on a glycan)
T1 sequence (P08709 213-466 limits assumed): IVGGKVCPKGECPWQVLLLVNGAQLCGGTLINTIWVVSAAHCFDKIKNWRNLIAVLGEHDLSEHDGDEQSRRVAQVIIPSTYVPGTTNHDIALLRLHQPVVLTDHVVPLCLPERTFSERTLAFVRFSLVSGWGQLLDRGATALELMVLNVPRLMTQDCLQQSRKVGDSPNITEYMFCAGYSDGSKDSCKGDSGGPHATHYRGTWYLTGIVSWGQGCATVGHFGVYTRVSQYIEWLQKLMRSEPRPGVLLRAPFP
T1 sequence (P08709 61-212 limits assumed): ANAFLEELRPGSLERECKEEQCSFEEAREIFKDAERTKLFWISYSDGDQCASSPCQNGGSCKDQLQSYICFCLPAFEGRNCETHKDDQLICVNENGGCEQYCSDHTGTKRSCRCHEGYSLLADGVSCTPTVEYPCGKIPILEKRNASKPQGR
Assay: Stability experiment on 40K-PEG-rFVIIa in solution, clot activity by One-stage Coagulation Assay (Assay 4)
Type: biochemical
Details: 20 mg/ml 40K-PEG-rFVIIa, pH 7.0, 3 months at 25° C.
Method: Factor VII polypeptides may also be assayed for specific activities (“clot activity”) by using a one-stage coagulation assay (Assay 4). For this purpose, the sample to be tested is diluted in 50 mM PIPES-buffer (pH 7.2), 1% BSA and 40 μl is incubated with 40 μl of Factor VII deficient plasma and 80 μl of human recombinant tissue factor containing 10 mM Ca^2+ and synthetic phospholipids. Coagulation times (clotting times) are measured and compared to a standard curve using a reference standard in a parallel line assay.
In order to investigate the stabilizing effect of the compounds described by the current invention on Factor VIIa molecules in solution, a stability experiment was performed on 40K-PEG-rFVIIa.
The investigated formulations contained 0, 1, 10 or 30 mM n-propyloxycarbonyl-Phe(4-amidino)-Glu-Asn-Cha-(OEG)5-NH2, and all contained 20 mg/ml 40K-PEG-rFVIIa, 20 mM histidine, pH 7.0, 6% sucrose, 20 mM CaCl2, 0.5 mg/ml methionine. The samples were incubated 3 months at 25° C., and analysed for clot activity using the above-described “One-stage Coagulation Assay” (Assay 4) (see section “General Methods”).

**Q.** How did the “Clot activity relative to the initial value” (1 mM inhibitor) turn out when “Propyloxycarbonyl-(4-amidino-Phe)-Glu-Asn-Cha-[HN—(CH2—CH2—O)2—(CH2)—C(═O)]5—NH2 [Example 1]” was run?
**A.** 18%

**Q.** What about the “Clot activity relative to the initial value” (10 mM inhibitor) of the same substance?
**A.** 86%

**Q.** What about the “Clot activity relative to the initial value” (30 mM inhibitor) of the same substance?
**A.** 89%
